System: Culex quinquefasciatus mosquito larvae
Assay: whole plant or invertebrate
Format: in vivo
Excerpt: FIG. 5 depicts a graph of the percentage of mosquito larvae death as a function of time for the different zein-silver particle solutions. This graph includes the results from five (5) trials with twenty (20) 3rd instar or 4th instar larvae. The Y axis presents the percentage death (Lethal %). The X axis presents the time after treatment in hours. Circles represent 100 ppm zein-silver particles; triangles represent 1 ppm zein-silver particles; diamonds represent 0.1 ppm zein-silver particles.
The larvicidal effect of the zein-silver particles prepared above was tested on Culex quinquefasciatus mosquito species.

| Compound | mortality at 0.2 ppm (Culex quinquefasciatus, 40 h, read-out: Larval Mortality (%)) [%] | killing of larvae (0.2 ppm, after 90 hours) [%] |
| --- | --- | --- |
| OCC(O)CO [Glycerol, glycerol] | 0 |  |
| [BH4-].[Na+] [sodium borohydride] |  | 8 |
